Assay results: US9150529B2, “Piperazine derivatives, methods for preparing same, and uses thereof in the treatment of insulin resistance” (METABOLYS, priority 2011, dated 2015)

Tested on: db/db mouse
Experiment: Antidiabetic activity in db/db mouse (drop in glycaemia after oral administration)
Format: in vivo
Details: 8 weeks old, 200 mg/kg per os, blood from tail, glucometer; for Drop in glycaemia (in % of the initial value) After 1 hour: 1 hour after administration; for Drop in glycaemia (in % of the initial value) After 2 hours: 2 hours after administration
Description: The antidiabetic activity of the compounds of formula (I) orally on a type 2 diabetes animal model, the db/db mouse, was tested. Diabetic mice are used at the age of 8 weeks; they then have very high hyperglycaemia. The animals are stabilised at a minimum for one week after reception and up to the day of experimentation in an animal house at a temperature regulated at 21°-22° C. and subjected to a fixed cycle of light (from 7 a.m. to 7 p.m.) and darkness (from 7 p.m. to 7 a.m.). Their food consisted of a maintenance regime; water and food were supplied “ad libitum”. The mice are treated orally with the product to be tested (200 mg/kg per os) in suspension in a mixture of water and methyl cellulose or the vehicle (mixture of water and methyl cellulose) in the morning of the day of the experimentation. Just before the administration of the product and one and two hours after the administration of the product, a blood sample (one drop of blood) is taken following a small incision in the tail for determining glycaemia. This glycaemia is measured by means of a glucometer (Lifescan OneTouch Ultra, LifeScan, Johnson-Johnson Company) and OneTouchUltra glycaemia measurement strips.

Q: What does the source list for `O=C(O)CCC(=O)c1ccc(OCCN2CCN(c3ccccc3F)CC2)cc1` [Compound 3]?
A: Drop in glycaemia (in % of the initial value) After 1 hour: 23%; Drop in glycaemia (in % of the initial value) After 2 hours: 29%

Q: Which results are given for `O=C(O)CCC(=O)c1ccc(OCCN2CCN(c3ccccn3)CC2)cc1` [Compound 10]?
A: Drop in glycaemia (in % of the initial value) After 1 hour: 23%; Drop in glycaemia (in % of the initial value) After 2 hours: 39%

Q: With `O=C(O)CCC(=O)c1ccc(OCCN2CCN(c3cccc(F)c3)CC2)cc1` [Compound 4] as the compound, how does the “Drop in glycaemia (in % of the initial value) After 1 hour” value read?
A: 9%

Q: And the “Drop in glycaemia (in % of the initial value) After 2 hours” value?
A: 20%

Q: Which “Drop in glycaemia (in % of the initial value) After 1 hour” value does the source give for `O=C(O)CCC(=O)c1ccc(OCCN2CCN(c3ccc(F)cc3)CC2)cc1` [Compound 5] here?
A: 5%

Q: What about the “Drop in glycaemia (in % of the initial value) After 2 hours” value of the same compound?
A: 23%

Q: With `COc1cccc(N2CCN(CCOc3ccc(C(=O)CCC(=O)O)cc3)CC2)c1` [Compound 12] as the compound, how does the “Drop in glycaemia (in % of the initial value) After 1 hour” value read?
A: 19%

Q: And the “Drop in glycaemia (in % of the initial value) After 2 hours” value?
A: 32%

Q: Which results are given for `COc1ccc(N2CCN(CCOc3ccc(C(=O)CCC(=O)O)cc3)CC2)cc1` [Compound 2]?
A: Drop in glycaemia (in % of the initial value) After 1 hour: 7%; Drop in glycaemia (in % of the initial value) After 2 hours: 12%

Q: How did the “Drop in glycaemia (in % of the initial value) After 1 hour” value turn out when `CN(C)C(=N)N=C(N)N` [Metformin, reference compound] was run?
A: 22%

Q: What about the “Drop in glycaemia (in % of the initial value) After 2 hours” value of the same compound?
A: 27%
